Results as given in ChEMBL document CHEMBL1201862, “PubChem BioAssay data set” (2004).
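Each compound was tested at five concentrations against cells in 96-well plates for 48 hours. GI50 is the concentration that inhibits growth by half.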 Active and inactive are the calls of the source. No stated cut-off is given here; in the data, active = GI50 up to about 1.1 µM and inactive = higher.

What was measured:
Experiment in all cases: NCI tumour cell line growth inhibition, 48 h
786-0 = test system: 786-0
A498 = test system: A498
A549 = test system: A549
ACHN = test system: ACHN
CAKI-1 = test system: CAKI-1
CCRF-CEM = test system: CCRF-CEM
COLO 205 = test system: COLO 205
DLD-1 = test system: DLD-1
DMS-114 = test system: DMS-114
DMS-273 = test system: DMS-273
EKVX = test system: EKVX
HCC 2998 = test system: HCC 2998
HCT-116 = test system: HCT-116
HCT-15 = test system: HCT-15
HL-60 = test system: HL-60
HOP-62 = test system: HOP-62
HOP-92 = test system: HOP-92
HT-29 = test system: HT-29
IGROV-1 = test system: IGROV-1
K562 = test system: K562
KM-20L2 = test system: KM-20L2
KM12 = test system: KM12
LOX IMVI = test system: LOX IMVI
LXFL 529 = test system: LXFL 529
M14 = test system: M14
M19-MEL = test system: M19-MEL
MOLT-4 = test system: MOLT-4
Malme-3M = test system: Malme-3M
NCI-H226 = test system: NCI-H226
NCI-H23 = test system: NCI-H23
NCI-H460 = test system: NCI-H460
NCI-H522 = test system: NCI-H522
OVCAR-3 = test system: OVCAR-3
OVCAR-4 = test system: OVCAR-4
OVCAR-5 = test system: OVCAR-5
OVCAR-8 = test system: OVCAR-8
RPMI-8226 = test system: RPMI-8226
RXF 393 = test system: RXF 393
SF-268 = test system: SF-268
SF-295 = test system: SF-295
SF-539 = test system: SF-539
SK-MEL-28 = test system: SK-MEL-28
SK-MEL-2 = test system: SK-MEL-2
SK-OV-3 = test system: SK-OV-3
SN12C = test system: SN12C
SNB-19 = test system: SNB-19
SNB-75 = test system: SNB-75
SNB-78 = test system: SNB-78
SW-620 = test system: SW-620
TK-10 = test system: TK-10
U-251 = test system: U-251
UACC-257 = test system: UACC-257
UACC-62 = test system: UACC-62
UO-31 = test system: UO-31
XF498 = test system: XF498
SK-MEL-5 = test system: SK-MEL-5

For `CC(C)(C)OP(=O)(OC(C)(C)C)C(O)c1ccc(/C=C(\C#N)C(N)=O)cc1` (centres undefined), the GI50 (786-0) was > 100 µM (inactive), the GI50 (A498) was > 100 µM (inactive) and the GI50 (A549) was > 100 µM (inactive). The GI50 (ACHN) was > 100 µM (inactive), the GI50 (CAKI-1) was > 100 µM (inactive) and the GI50 (CCRF-CEM) was > 100 µM (inactive). The GI50 (COLO 205) was > 100 µM (inactive), the GI50 (DLD-1) was > 100 µM (inactive) and the GI50 (DMS-114) was > 100 µM (inactive). The GI50 (DMS-273) was > 100 µM (inactive), the GI50 (EKVX) was > 100 µM (inactive) and the GI50 (HCC 2998) was > 100 µM (inactive). For the same compound, the GI50 (HCT-116) was > 100 µM (inactive), the GI50 (HCT-15) was > 100 µM and the GI50 (HL-60) was 38.9 µM (inactive). For the same compound, the GI50 (HOP-62) was > 100 µM (inactive), the GI50 (HOP-92) was > 100 µM (inactive) and the GI50 (HT-29) was > 100 µM (inactive). For the same compound, the GI50 (IGROV-1) was > 100 µM (inactive), the GI50 (K562) was > 100 µM (inactive) and the GI50 (KM-20L2) was > 100 µM (inactive). The GI50 (KM12) was > 100 µM (inactive), the GI50 (LOX IMVI) was > 100 µM (inactive) and the GI50 (LXFL 529) was > 100 µM (inactive). The GI50 (M14) was > 100 µM (inactive), the GI50 (M19-MEL) was > 100 µM (inactive) and the GI50 (MOLT-4) was > 100 µM (inactive). The GI50 (Malme-3M) was > 100 µM (inactive), the GI50 (NCI-H226) was > 100 µM (inactive) and the GI50 (NCI-H23) was > 100 µM (inactive). For the same compound, the GI50 (NCI-H460) was > 100 µM (inactive), the GI50 (NCI-H522) was > 100 µM (inactive) and the GI50 (OVCAR-3) was > 100 µM (inactive). The GI50 (OVCAR-4) was > 100 µM (inactive), the GI50 (OVCAR-5) was > 100 µM (inactive) and the GI50 (OVCAR-8) was > 100 µM (inactive). The GI50 (RPMI-8226) was > 100 µM (inactive), the GI50 (RXF 393) was > 100 µM (inactive) and the GI50 (SF-268) was > 100 µM (inactive). The GI50 (SF-295) was > 100 µM (inactive), the GI50 (SF-539) was > 100 µM (inactive) and the GI50 (SK-MEL-28) was > 100 µM (inactive). For the same compound, the GI50 (SK-MEL-2) was > 100 µM (inactive), the GI50 (SK-OV-3) was > 100 µM (inactive) and the GI50 (SN12C) was > 100 µM (inactive). The GI50 (SNB-19) was > 100 µM (inactive), the GI50 (SNB-75) was > 100 µM (inactive) and the GI50 (SNB-78) was > 100 µM (inactive). The GI50 (SW-620) was > 100 µM (inactive), the GI50 (TK-10) was > 100 µM (inactive) and the GI50 (U-251) was > 100 µM (inactive). For the same compound, the GI50 (UACC-257) was > 100 µM (inactive), the GI50 (UACC-62) was > 100 µM (inactive) and the GI50 (UO-31) was > 100 µM (inactive). The GI50 (XF498) was > 100 µM (inactive).
With `CC1(C2CCC3(C)C(C2)C3Sc2ccccc2)OCCO1` (centres undefined) the GI50 (786-0) was 15.1 µM (inactive), the GI50 (A498) was 18.8 µM (inactive) and the GI50 (A549) was 24.2 µM (inactive). The GI50 (ACHN) was 20.7 µM (inactive), the GI50 (CAKI-1) was 20.3 µM (inactive) and the GI50 (CCRF-CEM) was 17.9 µM (inactive). The GI50 (COLO 205) was 19.4 µM (inactive), the GI50 (DLD-1) was 29 µM (inactive) and the GI50 (DMS-114) was 21.8 µM (inactive). The GI50 (DMS-273) was 19.9 µM (inactive), the GI50 (EKVX) was 26.7 µM (inactive) and the GI50 (HCC 2998) was 20.1 µM (inactive). For the same compound, the GI50 (HCT-116) was 15.5 µM (inactive), the GI50 (HCT-15) was 31.9 µM and the GI50 (HL-60) was 12.1 µM (inactive). The GI50 (HOP-62) was 20.2 µM (inactive), the GI50 (HOP-92) was 23.3 µM (inactive) and the GI50 (HT-29) was 17.5 µM (inactive). For the same compound, the GI50 (IGROV-1) was 35.7 µM (inactive), the GI50 (K562) was 17.1 µM (inactive) and the GI50 (KM12) was 25.6 µM (inactive). The GI50 (LOX IMVI) was 23.7 µM (inactive), the GI50 (LXFL 529) was 37.2 µM (inactive) and the GI50 (M14) was 37 µM (inactive). For the same compound, the GI50 (M19-MEL) was 19.8 µM (inactive), the GI50 (MOLT-4) was 18 µM (inactive) and the GI50 (Malme-3M) was 18.3 µM (inactive). For the same compound, the GI50 (NCI-H23) was 22.4 µM (inactive), the GI50 (NCI-H460) was 20.4 µM (inactive) and the GI50 (NCI-H522) was 18.9 µM (inactive). For the same compound, the GI50 (OVCAR-3) was 14.4 µM (inactive), the GI50 (OVCAR-4) was 31.3 µM (inactive) and the GI50 (OVCAR-5) was 20.5 µM (inactive). The GI50 (OVCAR-8) was 31.8 µM (inactive), the GI50 (RPMI-8226) was 13.5 µM (inactive) and the GI50 (RXF 393) was 15 µM (inactive). The GI50 (SF-268) was 34.8 µM (inactive), the GI50 (SF-295) was 21.5 µM (inactive) and the GI50 (SF-539) was 20.8 µM (inactive). For the same compound, the GI50 (SK-MEL-28) was 24.9 µM (inactive), the GI50 (SK-MEL-2) was 16.8 µM (inactive) and the GI50 (SK-MEL-5) was 17.3 µM (inactive). The GI50 (SK-OV-3) was 33 µM (inactive), the GI50 (SN12C) was 20.4 µM (inactive) and the GI50 (SNB-19) was 27 µM (inactive). For the same compound, the GI50 (SNB-75) was 54.6 µM (inactive), the GI50 (SNB-78) was 40 µM (inactive) and the GI50 (SW-620) was 21.5 µM (inactive). The GI50 (TK-10) was 56.6 µM (inactive), the GI50 (U-251) was 19.8 µM (inactive) and the GI50 (UACC-257) was 17.5 µM (inactive). The GI50 (UACC-62) was 19.4 µM (inactive), the GI50 (UO-31) was 12.6 µM (inactive) and the GI50 (XF498) was 17.1 µM (inactive).
